Assay results from US8648205B2, “Metal complexes of N-heterocyclic carbenes” (The University of Akron, priority 2003, dated 2014).
Converted amounts (≈) assume the structure as drawn. Where two headings read alike, the source gives them in different places.

Key:
[1] = stability (air, light, water, chloride, storage); details: 37: bromide salt; 20a, 20b: bromide salts
Pseudomonas aeruginosa = assay: Efficacy data MIC and MBC (Table 7); format: cell-based
Alcaligenes xylosoxidans = assay: Efficacy data MIC and MBC (Table 7); format: cell-based
[2] = test system: Stenotrophomonas maltophilia; assay: Efficacy data MIC and MBC (Table 7); format: cell-based; details: isolate SM AH08
[3] = test system: Methicillin resistant Staphylococcus aureus (MRSA); assay: Efficacy data MIC and MBC (Table 7); format: cell-based
Yersinia pestis = assay: microbe, parasite or virus in culture; format: cell-based
Escherichia coli = assay: Efficacy data MIC and MBC (Table 7); format: cell-based

For `CN1c2c(n(C)c(=O)n(C)c2=O)N(C)[CH]1[Ag][CH]1N(C)c2c(n(C)c(=O)n(C)c2=O)N1C` (stereo not shown) [Formula 97a], the stability in water [1] was “stable in water for five days”.
For `CC(C)Cc1ccc(C(C)C(=O)[O][Ag][c]2n(C)c3c(=O)n(C)c(=O)n(C)c3[n+]2C)cc1` (stereo not shown) [SCC1-IBU], the MBC (Pseudomonas aeruginosa; isolate PA 01-V) was 6 µg/mL, the MIC (Pseudomonas aeruginosa; isolate PA 01-V) was 2 µg/mL and the MBC (Pseudomonas aeruginosa; isolate PA HP3) was 2 µg/mL. The MIC (Pseudomonas aeruginosa; isolate PA HP3) was 0.25 µg/mL, the MBC (Pseudomonas aeruginosa; isolate PA LF05) was 1 µg/mL and the MIC (Pseudomonas aeruginosa; isolate PA LF05) was 1 µg/mL. The MBC (Pseudomonas aeruginosa; isolate PA M57-15) was 2 µg/mL, the MIC (Pseudomonas aeruginosa; isolate PA M57-15) was 1 µg/mL and the MBC (Pseudomonas aeruginosa; isolate PA RR05) was 2 µg/mL. The MIC (Pseudomonas aeruginosa; isolate PA RR05) was 0.25 µg/mL, the MBC (Alcaligenes xylosoxidans; isolate AX 22) was 2 µg/mL and the MIC (Alcaligenes xylosoxidans; isolate AX 22) was 0.5 µg/mL. It also gave an MBC (Alcaligenes xylosoxidans; isolate AX RE05) of 2 µg/mL, an MIC (Alcaligenes xylosoxidans; isolate AX RE05) of 1 µg/mL and an MBC [2] of 2 µg/mL. For the same compound, the MIC [2] was 1 µg/mL, the MBC ([3]; isolate SA EH06) was 4 µg/mL and the MIC ([3]; isolate SA EH06) was 2 µg/mL. It also gave an MBC ([3]; isolate SA LL06) of 6 µg/mL, an MIC ([3]; isolate SA LL06) of 2 µg/mL and an MBC (Yersinia pestis; isolate YP1-1CO92-LCR-) of 2 µg/mL. For the same compound, the MIC (Yersinia pestis; isolate YP1-1CO92-LCR-) was 0.5 µg/mL, the MBC (Escherichia coli; isolate J53) was 0.5 µg/mL and the MIC (Escherichia coli; isolate J53) was 0.5 µg/mL. For the same compound, the MBC (Escherichia coli; isolate J53 + pMG101) was >20 µg/mL and the MIC (Escherichia coli; isolate J53 + pMG101) was >20 µg/mL.
`CC(=O)[O][Ag][c]1n(C)c2c(=O)n(C)c(=O)n(C)c2[n+]1C` [SCC1] showed an MBC (Pseudomonas aeruginosa; isolate PA 01-V) of 2 µg/mL, an MIC (Pseudomonas aeruginosa; isolate PA 01-V) of 1 µg/mL and an MBC (Pseudomonas aeruginosa; isolate PA HP3) of 8 µg/mL. The MIC (Pseudomonas aeruginosa; isolate PA HP3) was 4 µg/mL, the MBC (Pseudomonas aeruginosa; isolate PA LF05) was 1 µg/mL and the MIC (Pseudomonas aeruginosa; isolate PA LF05) was 1 µg/mL. The MBC (Pseudomonas aeruginosa; isolate PA M57-15) was 4 µg/mL, the MIC (Pseudomonas aeruginosa; isolate PA M57-15) was 2 µg/mL and the MBC (Pseudomonas aeruginosa; isolate PA RR05) was 1 µg/mL. It also gave an MIC (Pseudomonas aeruginosa; isolate PA RR05) of 0.5 µg/mL, an MBC (Alcaligenes xylosoxidans; isolate AX 22) of 2 µg/mL and an MIC (Alcaligenes xylosoxidans; isolate AX 22) of 0.5 µg/mL. It also gave an MBC (Alcaligenes xylosoxidans; isolate AX RE05) of 8 µg/mL, an MIC (Alcaligenes xylosoxidans; isolate AX RE05) of 4 µg/mL and an MBC [2] of 8 µg/mL. For the same compound, the MIC [2] was 4 µg/mL, the MBC ([3]; isolate SA EH06) was 20 µg/mL and the MIC ([3]; isolate SA EH06) was 6 µg/mL. For the same compound, the MBC ([3]; isolate SA LL06) was 10 µg/mL, the MIC ([3]; isolate SA LL06) was 8 µg/mL and the MBC (Yersinia pestis; isolate YP1-1CO92-LCR-) was 1 µg/mL. For the same compound, the MIC (Yersinia pestis; isolate YP1-1CO92-LCR-) was 0.5 µg/mL, the MBC (Escherichia coli; isolate J53) was 1 µg/mL and the MIC (Escherichia coli; isolate J53) was 1 µg/mL. For the same compound, the MBC (Escherichia coli; isolate J53 + pMG101) was >20 µg/mL and the MIC (Escherichia coli; isolate J53 + pMG101) was >20 µg/mL.
For `NC[C@H]1O[C@H](O[C@H]2[C@H](O)[C@@H](O[C@H]3O[C@H](CO)[C@@H](O)[C@H](N)[C@H]3O)[C@H](N)C[C@@H]2N)[C@H](N)C[C@@H]1O` [Tobramycin, reference compound], the MBC (Pseudomonas aeruginosa; Pseudomonas aeruginosa, isolate PA 01-V, read-out: MBC) was > 20 µg/mL, the MIC (Pseudomonas aeruginosa; Pseudomonas aeruginosa, isolate PA 01-V, read-out: MIC) was 15 µg/mL (≈ 32.1 µM) and the MBC (Pseudomonas aeruginosa; Pseudomonas aeruginosa, isolate PA HP3, read-out: MBC) was 8 µg/mL (≈ 17.1 µM). For the same compound, the MIC (Pseudomonas aeruginosa; Pseudomonas aeruginosa, isolate PA HP3, read-out: MIC) was 4 µg/mL (≈ 8.56 µM), the MBC (Pseudomonas aeruginosa; Pseudomonas aeruginosa, isolate PA LF05, read-out: MBC) was 1 µg/mL (≈ 2.14 µM) and the MIC (Pseudomonas aeruginosa; Pseudomonas aeruginosa, isolate PA LF05, read-out: MIC) was 0.5 µg/mL (≈ 1.07 µM). For the same compound, the MBC (Pseudomonas aeruginosa; Pseudomonas aeruginosa, isolate PA M57-15, read-out: MBC) was 1 µg/mL (≈ 2.14 µM), the MIC (Pseudomonas aeruginosa; Pseudomonas aeruginosa, isolate PA M57-15, read-out: MIC) was 0.5 µg/mL (≈ 1.07 µM) and the MBC (Pseudomonas aeruginosa; Pseudomonas aeruginosa, isolate PA RR05, read-out: MBC) was 1 µg/mL (≈ 2.14 µM). For the same compound, the MIC (Pseudomonas aeruginosa; Pseudomonas aeruginosa, isolate PA RR05, read-out: MIC) was 0.5 µg/mL (≈ 1.07 µM), the MIC (Alcaligenes xylosoxidans; Achromobacter xylosoxidans, isolate AX RE05, read-out: MIC) was > 20 µg/mL and the MBC (Alcaligenes xylosoxidans; Achromobacter xylosoxidans, isolate AX 22, read-out: MBC) was > 20 µg/mL. The MIC (Alcaligenes xylosoxidans; Achromobacter xylosoxidans, isolate AX 22, read-out: MIC) was 20 µg/mL (≈ 42.8 µM), the MBC (Alcaligenes xylosoxidans; isolate AX RE05) was >20 µg/mL and the MBC ([2]; Stenotrophomonas maltophilia, read-out: MBC) was 20 µg/mL (≈ 42.8 µM). The MIC ([2]; Stenotrophomonas maltophilia, read-out: MIC) was 8 µg/mL (≈ 17.1 µM), the MBC ([3]; Staphylococcus aureus, MRSA, isolate SA LL06, read-out: MBC) was > 20 µg/mL and the MIC ([3]; Staphylococcus aureus, MRSA, isolate SA LL06, read-out: MIC) was > 20 µg/mL. The MBC ([3]; isolate SA EH06) was >20 µg/mL, the MIC ([3]; isolate SA EH06) was >20 µg/mL and the MBC (Yersinia pestis; Yersinia pestis) was 0.25 µg/mL (≈ 0.535 µM). It also gave an MIC (Yersinia pestis; Yersinia pestis) of 0.25 µg/mL (≈ 0.535 µM), an MBC (Escherichia coli; Escherichia coli, isolate J53, read-out: MBC) of 1 µg/mL (≈ 2.14 µM) and an MIC (Escherichia coli; Escherichia coli, isolate J53, read-out: MIC) of 1 µg/mL (≈ 2.14 µM). It also gave an MBC (Escherichia coli; isolate J53 + pMG101) of 1 µg/mL and an MIC (Escherichia coli; isolate J53 + pMG101) of 1 µg/mL.
